Key:
intestinal organoids = assay: Organoid culture, crypt formation; type: cell-based, mice; details: S3I-201 7.5 μM from day 3 after seeding
Experimental: […] Arrows point to budding crypt-like structures. Scale bar=50 μm.
d Enumeration of crypts on individual organoids from experiment illustrated in FIG. 1c. (*p≦0.018; Two-sided t-test on triplicate cultures and repeated).
Crypts from small intestines were harvested, washed and were resuspended at 2000 crypts/ml of matrigel (BD Biosciences) and 50 μL was dispensed in each well of a 24-well plate. Once the matrigel had set, medium was added and the organoids cultured for seven days as described (Sato et al., 2009). Experiments were performed in triplicates and repeated.
Organoid cultures were imaged on a Nikon Ti-E microscope using DIC contrast with a 10x PlanApo NA0.3 objective. A focal stack of images was collected (10 μm apart) and processed through the Best Focus function of MetaMorph v7.7.7 (Molecular Devices, USA) to generate the final image of individual Organoids.

SW480 cells [1] = assay: Soft agar colony growth assay, SW480; type: cell-based, human; details: SW480, 10 days; AZD1480 1 μM, S3I-201 50 μM, IL11 10 ng/ml
Experimental: (§1) e Photograph of SW480 and SW480^APC CRC cells grown for 10 days under colony forming conditions in soft agar in the presence of vehicle or 1 μM of Jak2 inhibitor AZD1480 (Jak2i) (Scale bar=200 μm)
(§2) f Colony forming capacity of an isogenic pair of SW480 cells scored 10 days after the indicated treatment. (*p≦0.04; triplicate cultures and repeated).
(§3) SW480 and SW480^APC cells (Faux et al., 2004) were seeded in 2 ml of RPMI media supplemented with 10% FBS and 1% penicillin/streptomycin in 35 mm culture dishes at a density of 2×10^5 cells per dish. Three days later cultures were exposed to AZD1480 (1 μM) for 15 min. Co-immunofluorescence was then performed with antibodies to rabbit phospho-Stat3 (Tyr705, Santa Cruz #9134s, 1:200 dilution) and mouse β-catenin (Transduction Laboratories, 1:400). Colony formation assays of SW480 cells in soft agar were performed as described (Faux et al., 2004) in the presence of either AZD1480, (1 μM), the Stat3 inhibitor S3I-201 (Biovision, 50 μM) or recombinant human IL11 (Genetics Institute, 10 ng/ml). All experiments were performed in triplicates and repeated at least once. Vehicle was methylcellulose.

SW480^APC cells [2] = assay: Soft agar colony growth assay, SW480APC; type: cell-based, human; details: 10 days, AZD1480 1 μM, S3I-201 50 μM, IL11 10 ng/ml
Experimental: as §1, §2, §3

intestinal tumours = assay: Intestinal tumour burden after tamoxifen-induced conditional Apc deletion in Lgr5CreERT2;Apcfl/fl mice; type: in vivo; details: Lgr5CreERT2;Apcfl/fl mice, CYT387 30 mg/kg oral gavage
Experimental: e Quantification of intestinal tumour burden of mice using the Metamorph analysis tool (Barker et al., 2009) after tamoxifen-induced conditional Apc deletion in adult Lgr5^CreERT2;Apc^fl/fl mice that also received daily administration of AZD1480 (30 mg/kg) or vehicle during this time. (*p≦0.04; n=3 mice).
d Intestinal tumour burden 5 weeks after tamoxifen-induced conditional Apc deletion in adult Lgr5^CreERT2;Apc^fl/fl mice that also received daily administration of AZD1480 (Jak2i; 30 mg/kg) or vehicle during this time. Higher magnifications of the boxed areas are provided and arrows point to tubular adenomas whilst arrowheads point to micro-adenomas. Scale bars=1 mm.
10 week old Lgr5CreERT2;Apcfl/fl mice received four i.p injections with tamoxifen (10 mg/ml; 300 ul, 200 ul, 200 ul, 200 ul) over four consecutive days. Three days after the last injection, mice received daily oral gavages with either vehicle (tap water, pH 2.0) or CYT387 (30 mg/kg) for four weeks. Regime was 5 days treatment followed by 2 days off treatment.
Hematoxilin and Eosin-stained sections were scanned using an Aperio ScanScope XT (Aperio, USA) pathology slide scanner with a 20x PlanApo NA0.6 objective and areas of interest were extracted using Aperio ImageScope software v11.1.2.760. The area of individual tumors was outlined using MetaMorph v7.7.7 and standardized against the entire length of the colon section as described (Barker et al., 2009).

TYK2 = TYK2 (Homo sapiens, UniProt P29597); details: WO2012062704; cited from earlier work
Sequence of TYK2 (P29597 whole entry, species assumed): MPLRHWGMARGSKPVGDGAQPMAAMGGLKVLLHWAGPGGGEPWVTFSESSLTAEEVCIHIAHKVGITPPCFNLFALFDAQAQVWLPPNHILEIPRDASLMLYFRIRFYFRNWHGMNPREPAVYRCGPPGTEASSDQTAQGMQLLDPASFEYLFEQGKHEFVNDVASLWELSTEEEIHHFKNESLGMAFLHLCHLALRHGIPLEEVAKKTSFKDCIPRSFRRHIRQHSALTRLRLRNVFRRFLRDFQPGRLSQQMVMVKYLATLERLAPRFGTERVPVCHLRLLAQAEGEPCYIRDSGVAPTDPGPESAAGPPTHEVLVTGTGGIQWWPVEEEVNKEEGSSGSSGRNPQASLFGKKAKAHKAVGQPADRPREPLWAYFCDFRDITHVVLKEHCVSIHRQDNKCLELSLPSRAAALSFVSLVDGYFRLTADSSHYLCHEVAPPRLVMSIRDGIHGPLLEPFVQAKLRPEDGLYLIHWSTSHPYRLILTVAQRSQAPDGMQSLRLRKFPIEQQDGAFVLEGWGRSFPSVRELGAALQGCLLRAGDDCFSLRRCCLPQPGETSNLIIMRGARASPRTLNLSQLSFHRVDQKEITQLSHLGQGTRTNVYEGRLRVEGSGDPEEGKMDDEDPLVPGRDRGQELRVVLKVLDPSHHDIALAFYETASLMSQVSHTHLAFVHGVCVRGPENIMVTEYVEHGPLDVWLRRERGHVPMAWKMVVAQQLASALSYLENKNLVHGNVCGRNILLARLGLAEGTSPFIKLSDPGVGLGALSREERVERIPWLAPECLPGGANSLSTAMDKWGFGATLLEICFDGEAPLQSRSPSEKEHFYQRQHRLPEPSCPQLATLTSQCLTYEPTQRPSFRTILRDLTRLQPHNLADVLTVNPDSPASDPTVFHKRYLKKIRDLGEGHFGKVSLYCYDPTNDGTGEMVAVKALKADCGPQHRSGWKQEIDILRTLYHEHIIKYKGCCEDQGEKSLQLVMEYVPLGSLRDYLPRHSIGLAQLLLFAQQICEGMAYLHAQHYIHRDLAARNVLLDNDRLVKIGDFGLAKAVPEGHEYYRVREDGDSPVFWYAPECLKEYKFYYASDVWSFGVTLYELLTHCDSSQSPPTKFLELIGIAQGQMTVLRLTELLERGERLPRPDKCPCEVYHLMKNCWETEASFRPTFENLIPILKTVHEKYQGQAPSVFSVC

SW480 cells [3] = assay: p-STAT3 / β-CATENIN immunofluorescence and SOCS3 RT-qPCR in SW480 cells; type: cell-based, human; details: SW480, RT-qPCR; AZD1480 1 μM, IL11 10 ng/ml
Experimental: (§4) d Immunofluorescence staining for β-CATENIN or tyrosine-705 phosphorylated STAT3 in an isogenic pair of SW480 cells grown in the presence of 1 μM AZD1480 (Jak2i) or vehicle. SW480 cells are APC mutant and lack expression of functional APC protein, while SW480^APC cells have been reconstituted to express wild-type APC. Scale bar=20 μm.
(§5) g RT-qPCR expression analysis for the STAT3 target gene SOCS3 in SW480 and SW480^APC CRC cells grown for 10 days under colony forming conditions in soft agar in the presence of the indicated treatment. Expression in the vehicle-treated cultures was arbitrarily set as 1. (*p≦0.04; triplicate cultures in each of two repeats).
as §3
(§6) Gene expression analysis by RT-qPCR was performed using the SybrGreen method (ABI) as described previously (Phesse et al., 2008). Fold change was calculated using the 2^−ΔΔCT method (Livak et al., 2001). Protein expression was analysed by Western blot by transferring SDS-PAGE separated protein lysates to nitrocellulose membrane and blocked either in 5% non-fat milk powder and probed with antibodies detecting p16 (Santa Cruz; #sc-467), Bmi1 (Millipore #[…]), Actin (Sigma; #A2066) or Gapdh (Santa Cruz; #sc-69778). All antibodies were diluted 1:1000 in BSA or non-fat milk powder and incubations were performed overnight.

SW480^APC cells [4] = assay: p-STAT3 immunofluorescence and SOCS3 RT-qPCR in SW480APC cells; type: cell-based, human; details: RT-qPCR, AZD1480 1 μM, IL11 10 ng/ml
Experimental: as §4, §5, §3, §6

IECs = assay: RT-qPCR of IECs after i.p. injection of recombinant IL-11; type: in vivo; details: gp130^F/F mice, 30 minutes after i.p. 5 μg recombinant IL-11
Experimental: a RT-qPCR expression analysis for Socs3 and Bmi1 in IECs isolated from gp130^F/F mice 30 minutes after an i.p. injection of 5 μg of recombinant IL-11 (p=0.04; n=3 mice).
as §6

Molecule: Cc1ccc(S(=O)(=O)OCC(=O)Nc2ccc(C(=O)O)c(O)c2)cc1 [S3I-201]
- crypt formation of organoids (intestinal organoids): reduced
- colony formation in soft agar (SW480 cells [1]): strongly impaired
- colony formation in soft agar (SW480^APC cells [2]): did not affect colony formation

Molecule: N#CCNC(=O)c1ccc(-c2ccnc(Nc3ccc(N4CCOCC4)cc3)n2)cc1 [CYT387]
- morphology of lesions (intestinal tumours; 4 weeks): retained the morphology of the growth arrested microadenomas
- intestinal tumour burden (histological assessment) (intestinal tumours; 4 weeks (5 days on, 2 off), vehicle: large tubular adenomas): few small emerging lesion

Molecule: COc1ccc(-c2nc(NC(=O)C3CC3)ncc2C)cc1F
- selectivity for TYK2 (TYK2): > 100 fold

B1: IL-11: recombinant gp130 cytokine IL-11 (Genetics Institute) (protein, UniProt P20809 22-199, looked up)
Interleukin-11: PGPPPGPPRVSPDPRAELDSTVLLTRSLLADTRQLAAQLRDKFPADGDHNLDSLPTLAMSAGALGALQLPGVLTRLRADLLSYLRHVQWLRRAGGSSLKTLEPELGTLQARLDRLLRRLQLLMSRLALPQPPPDPPAPPLAPPSSAWGGIRAAHAILGGLHLTLDWAVRGLLLLKTRL
- SOCS3 expression (SW480 cells [3]): increased SOCS3 expression
- SOCS3 expression (SW480^APC cells [4]): increased SOCS3 expression
- colony formation in soft agar (SW480 cells [1]): enhanced colony formation
- colony formation in soft agar (SW480^APC cells [2]): enhanced colony formation
- Bmi1 expression in IECs (IECs): rapidly induced
- Socs3 expression in IECs (IECs): rapidly induced

— US20160045498A1, “METHODS OF TREATING DISEASES CHARACTERIZED BY EXCESSIVE WNT SIGNALLING” (THE WALTER AND ELIZA HALL INSTITUTE OF MEDICAL RESEARCH, priority 2013, published 2016)
